The record followed here is patent US5244915A, “Amico acid derivatives cyclized at the C-terminal” (Warner-Lambert Company, priority 1991, dated 1993).

The target in test [1] is CCK A. Nature of the test: CCK receptor binding (CCK A). The note with it: assay not described. How it is done: (§1) The biological activity of compounds of the present invention was evaluated employing an initial screening test which rapidly and accurately measured the binding of the tested compound to known CCK receptor sites. […] (See Hays et al, Neuropeptides 1:53-62, 1980; and Satuer et al, Science 208:1155-1156, 1980.
(§2) The inhibition constant (Ki) of the test compound was then calculated according to the Cheng-Prusoff equation: [formula] where [L] is the concentration of radiolabel and Ka is the equilibrium dissociation constant.

In test [2] the target is T1, CCK B (Mus musculus, UniProt P56481).
T1 construct: from tissue; host or cells: cerebral cortex of male CFLP mice (30-40 g), washed membranes
T1 sequence (P56481 1-453): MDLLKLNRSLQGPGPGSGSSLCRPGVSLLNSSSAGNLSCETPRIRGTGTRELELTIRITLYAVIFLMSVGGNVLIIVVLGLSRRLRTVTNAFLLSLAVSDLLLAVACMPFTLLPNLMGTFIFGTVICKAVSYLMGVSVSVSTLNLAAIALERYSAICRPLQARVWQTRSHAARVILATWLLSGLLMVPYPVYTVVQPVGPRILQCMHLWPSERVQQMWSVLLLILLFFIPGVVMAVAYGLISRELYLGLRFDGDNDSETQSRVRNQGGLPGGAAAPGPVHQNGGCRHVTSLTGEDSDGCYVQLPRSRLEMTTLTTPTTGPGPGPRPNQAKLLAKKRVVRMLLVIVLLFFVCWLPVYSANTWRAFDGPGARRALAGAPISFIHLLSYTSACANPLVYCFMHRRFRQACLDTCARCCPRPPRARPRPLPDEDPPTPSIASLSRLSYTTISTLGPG
Nature of the test: CCK receptor binding, displacement of tritiated-pentagastrin from cerebral cortical membranes (CCK B). Further details: species or system mouse (male CFLP). Conditions: mouse cerebral cortex membranes, 2 nM tritiated-pentagastrin. The method, then:
as §1
In this screening test, the cerebral cortices taken from male CFLP mice weighing between 30-40 g were dissected on ice, weighed, and homogenized in 10 volumes of 50 mM Tris-HCl buffer (pH 7.4 at 0°-4° C.). The resulting suspension was centrifuged, the supernate was discarded, and the pellet was washed by resuspension in Tris-HCl buffer followed by recentrifugation. The final pellet was resuspended in 20 volumes of […] buffer (pH 7.2 at 23° C.) containing 130 mM NaCl, […], […], […], 5 mg/mL bovine albumin, and bacitracin (0.25 mg/ml).
In saturation studies, cerebral cortical membranes were incubated at 23° C. for 120 minutes in a final volume of 500 μliter of Hepes incubation buffer (pH 7.2) together with 0.2-20 nM tritiated-pentagastrin (Amersham International, England).
In the displacement experiments, membranes were incubated with a single concentration (2 nM) of ligand, together with increasing concentrations (10^-11 to […]) of competitive test compound. In each case, the nonspecific binding was defined as that persisting in the presence of the unlabeled octapeptide CCK26-33 (10^-6 M).
Following incubation, radioactivity bound to membranes was separated from that free in solution by rapid filtration through Whatman GF/B filters and washed three times with 4 mL of ice cold Tris-HCl buffer. Filters from samples incubated with tritiated-pentagastrin were placed in polyethylene vials with 4 mL of scintillation cocktail, and the radioactivity was estimated by liquid scintillation spectrometry (efficiency 47-52%).
The specific binding to CCK receptor sites was defined as the total bound tritiated-pentagastrin minus the amount of tritiated-pentagastrin bound in the presence of 10^-6 octapeptide, CCK 26-33.
Saturation curves for specific tritiated-pentagastrin binding to mouse cortical membranes were analyzed by the methods of Scatchard (Ann. New York Acad. Sci. 51:660-672, 1949, and Hill (J. Phvsiol. 40:IV-VIII, 1910, to provide estimates for the maximum number of binding sites (Bmax) and the equilibrium dissociation constant (Ka).
In displacement experiments, inhibition curves were analyzed by either logit-log plots or the iterative curve fitting computer program ALLFIT (DeLean, Munson and Redbard, 1978) to provide estimates of the IC50 and nH (apparent Hill coefficient) values). (IC50 values were defined as the concentration of test compound required to produce 50% inhibition of specific binding.)
as §2

The structures appear in SMILES notation.

`CC1(C)[C@H]2CC[C@]1(C)[C@H](OC(=O)N[C@](C)(Cc1c[nH]c3ccccc13)C(=O)N[C@H]1Cc3ccccc3[C@@H]1O)C2` [Compound 2, Carbamic acid, [2-[(2,3-dihydro-1-hydroxy-1H-inden-2-yl)amino]-1-1H-indol-3-ylmethyl)-2-methyl-2-oxoethyl]-, 1,7,7-trimethylbicyclo-[2.2.1]hept-2-yl ester, [1S*[1α,2β[S-(trans)],4α]]-]: the Ki (usually a dissociation constant, usually derived from enzyme kinetics or from competition with a known ligand) in test [1] was found to be 5.3 µM; in test [2], 0.111 µM.

On to `CC1(C)[C@H]2CC[C@]1(C)[C@H](OC(=O)N[C@](C)(Cc1c[nH]c3ccccc13)C(=O)NC1CCc3ccccc3C1=O)C2` (single isomer, unassigned) [Compound 5, Carbamic acid, [1-(1H-indol-3 ylmethyl)-1-methyl-2-oxo-2-[(1-2,3,4-tetrahydro-1-oxo-2-naphthalenyl)amino]ethyl]-, 1,7,7-trimethylbicyclo[2.2.1.1]hept-2-yl ester], for which, in test [2], the inhibition constant (Ki) was 0.059 µM.

`CC1(C)[C@H]2CC[C@]1(C)[C@H](OC(=O)N[C@](C)(Cc1c[nH]c3ccccc13)C(=O)NC1c3ccccc3CC1O)C2` (stereo partly drawn) [Compound 1, Carbamic acid, [2-[(2,3-dihydro-2-hydroxy-1H-inden-1-yl)amino]-1-(1H-indol-3-ylmethyl)-1-methyl-2-oxoethyl]-, 1,7,7-trimethylbicyclo-[2.2.1]hept 2-yl ester] had a Ki in test [2] of 0.28 µM.

As to `C[C@](Cc1c[nH]c2ccccc12)(NC(=O)OC1C2CC3CC(C2)CC1C3)C(=O)N1CCc2ccccc2C1` (stereo partly drawn) [Compound 8, Carbamic acid, [1-(1H-indol-3-ylmethyl)-1-methyl-2-oxo-2-(1,2,3,4-tetrahydro-2-isoquinolinyl)ethyl]-, tricyclo[3.3.1.1^3.7]-dec-2-yl ester, (R)-], the affinity in test [2] corresponds to a Ki of 0.45 µM.

Regarding `CC1(C)[C@H]2CC[C@]1(C)[C@H](OC(=O)N[C@](C)(Cc1c[nH]c3ccccc13)C(=O)N[C@@H]1Cc3ccccc3[C@H]1O)C2` [Compound 3, Carbamic acid, [2-[(2,3-dihydro 1-hydroxy-1H-inden-2-yl)amino]-1-(1H-indol-3-ylmethyl)-1-methyl-2-oxoethyl]-, 1,7,7-trimethylbicyclo-[2.2.1]hept-2-yl ester, [1S-[1α,2β[S*(1S*,2S*)],4α]]-], the results for the Ki in test [1] and in test [2] were 3.87 µM and 0.03 µM, respectively.

Consider `CC(Cc1c[nH]c2ccccc12)(NC(=O)OC1C2CC3CC(C2)CC1C3)C(=O)NC1CCc2ccccc2C1` (racemic) [Compound 7, Carbamic acid, [1-1H-indol-3-ylmethyl)-1-methyl-2-oxo-2 [(1,2,3,4-tetrahydro-2-naphthalenyl)amino]ethyl]-, tricyclo[3.3.1.1^3,7]-dec-2-yl ester, (±)-], for which the affinity in test [2] corresponds to a Ki of 0.33 µM.

`CC(Cc1c[nH]c2ccccc12)(NC(=O)OC1C2CC3CC(C2)CC1C3)C(=O)NC1CCCc2ccccc21` (racemic) [Compound 6, Carbamic acid, [1-(1H-indol-3-ylmethyl)-1-methyl-2-oxo-2-[(1,2,3,4-tetrahydro-1-naphthalenyl)amino]ethyl]-, tricyclo[3.3.1.1^3,7]-dec-2-yl ester, (±)-]: the results for the Ki in test [1] and in test [2] were 5.22 µM and 0.045 µM, respectively.

In the case of `CC1(C)[C@H]2CC[C@]1(C)[C@H](OC(=O)N[C@](C)(Cc1c[nH]c3ccccc13)C(=O)NC1CCc3ccccc3C1=O)C2` (single isomer, unassigned) [Compound 4, Carbamic acid, [1-(1H-indol-3-ylmethyl)-1 methyl-2-oxo-2-[(1,2,3,4-tetrahydro-1-oxo 2-naphthalenyl)amino]ethyl]-, 1,7,7-trimethyl-bicyclo[2.2.1]hept-2-yl ester], the Ki in test [1] was 7.62 µM; in test [2] it was 0.094 µM.
